Data published in patent US20190376971A1, “Compositions and Methods for the Assessment of Drug Target Occupancy for Bruton's Tyrosine Kinase” (Acerta Pharma B.V., priority 2017, published 2019).

Assays:
[1] = target: T1, BTK (Homo sapiens, UniProt Q06187); test: Binding of biotin probes to recombinant BTK, Western blot with Streptavadin-HRP; conditions: PBS, lysis buffer 1 or lysis buffer 2
Method: For the biotin probes (such as Formula (3) and Formula (4)), samples are run using SDS-PAGE gel, followed by transferring the protein to a polyvinylidene fluoride (PVDF) membrane by Western blotting. Subsequently, the blot is blocked overnight at 4° C. in TBS-T (10 mM TRIS pH 7.4, 100 mM NaCl, 0.1% Tween 20)+2.5% (w/v) skimmed milk powder). The blot is washed 4× with TBS-T and then incubated with Streptavadin-HRP for 1 hour at room temperature. The blot is washed again 4× with TBS-T before adding the chemiluminescent substrate, followed by measurement of the chemiluminescence signal.
SDS-PAGE procedures are known to those of ordinary skill in the art. A non-limiting example of a SDS-PAGE procedure is as follows: • 1. Add 1.1 μL of probe to 10 μL of each sample (recombinant BTK or cell lysate); final probe concentration 0.1 μM. • 2. Incubate 2 hour at room temperature. • 3. Add 4 μL sample buffer/DTT (200 μM) and incubate for 5 minutes at 95° C. • 4. Vortex and keep on ice until loading on gel. • 5. […] For the samples on gel with the fluorescent probe, the gels are measured directly using an imager suitable for measuring the fluorescent label on the probes (e.g., E tan Imager; GE Healthcare (Cy2: 480/30 excitation, 530/40 emission, Cy3: 544 excitation, 570 emission). • 9. For the biotin labeled probes, the gel is blotted to a PVDF membrane, using the Western blot procedure below. […]
Target sequence in this assay (Q06187 whole entry, species assumed): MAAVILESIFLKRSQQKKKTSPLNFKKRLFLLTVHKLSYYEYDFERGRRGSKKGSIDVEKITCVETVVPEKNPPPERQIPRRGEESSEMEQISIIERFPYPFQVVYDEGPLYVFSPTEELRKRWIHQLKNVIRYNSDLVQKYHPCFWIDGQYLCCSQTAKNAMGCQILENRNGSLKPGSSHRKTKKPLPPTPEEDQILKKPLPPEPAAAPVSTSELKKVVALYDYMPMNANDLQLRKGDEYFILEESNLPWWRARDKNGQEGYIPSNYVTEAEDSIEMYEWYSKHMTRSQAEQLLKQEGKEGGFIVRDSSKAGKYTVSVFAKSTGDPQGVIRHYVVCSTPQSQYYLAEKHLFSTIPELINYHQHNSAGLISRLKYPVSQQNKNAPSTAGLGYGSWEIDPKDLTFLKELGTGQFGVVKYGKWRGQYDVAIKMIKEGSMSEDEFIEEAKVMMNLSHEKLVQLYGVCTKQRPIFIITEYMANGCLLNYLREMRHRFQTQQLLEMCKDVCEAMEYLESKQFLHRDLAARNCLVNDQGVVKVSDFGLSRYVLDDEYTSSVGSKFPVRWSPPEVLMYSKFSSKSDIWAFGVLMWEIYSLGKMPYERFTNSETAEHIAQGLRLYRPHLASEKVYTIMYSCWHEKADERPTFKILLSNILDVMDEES

[2] = target: T1, BTK; test: BTK IMAP (immobilized metal ion affinity-based fluorescence polarization) assay; assay type: biochemical; set-up: endogenous in cells; host or cells: Ramos B cells (Ramos.2G6.4C10); conditions: 5 μM ATP, 60 min pre-incubation, read-out: IC50 for BTK inhibition
Method: In summary, BTK enzyme activity is measured using the IMAP (immobilized metal ion affinity-based fluorescence polarization) assay as outlined below. […] After 60 minutes of incubation at room temperature in the dark, the FP signal is read. Fluorescence at 535 nm is measured using parallel and perpendicular filters to determine differences in rotation due to binding of the phosphorylated substrate peptide to the beads. Values are calculated as a percentage of the difference in readout (ΔmPi) of the controls with and without ATP.
Inhibition of the activity of the protein kinase BTK can be measured with the assay described in this protocol. […] The method is based on IMAP, which is a homogeneous fluorescence polarization (FP) assay based on affinity capture of phosphorylated peptide substrates. […]
Target sequence in this assay (Q06187 whole entry): as the sequence (Q06187 whole entry, species assumed) above

[3] = target: T1, BTK; test: Binding of BODIPY/fluorescent probes to recombinant BTK, SDS-PAGE in-gel fluorescence; conditions: probe 0.1 μM, 2 hours
Method: To test different BTK target occupancy probes and lysis buffers, probes were incubated with recombinant BTK protein for 2 hours and subsequently run using sodium dodecyl sulfate polyacrylamide gel electrophoresis (SDS PAGE). When using the boron-dipyrromethene (BODIPY) tagged probes (such as Formula (5) and Formula (6)), the gel is measured directly using a fluorescence imager. BTK probe (final concentration 0.1 μM) is incubated with 125 ng BTK for 2 hours at room temperature. Afterwards, sample buffer is added and run on a SDS-PAGE gel. Fluorescent probes such as Formula (5) and Formula (6) are quantified in gel using the E tan Imager from GE Healthcare, suitable for the emission and detection of fluorescent signal for BODIPY tags.
SDS-PAGE procedures are known to those of ordinary skill in the art. A non-limiting example of a SDS-PAGE procedure is as follows: • 1. Add 1.1 μL of probe to 10 μL of each sample (recombinant BTK or cell lysate); final probe concentration 0.1 μM. • 2. Incubate 2 hour at room temperature. • 3. Add 4 μL sample buffer/DTT (200 μM) and incubate for 5 minutes at 95° C. • 4. Vortex and keep on ice until loading on gel. • 5. Spin down shortly and load 15 μL on a 12 slot Novex gradient gel (4-12% Bis-Tris gel). • 6. Run in NuPage MOPS SDS running buffer. • 7. After running the samples on gel, remove the gel from the surelock holder. • 8. For the samples on gel with the fluorescent probe, the gels are measured directly using an imager suitable for measuring the fluorescent label on the probes (e.g., E tan Imager; GE Healthcare (Cy2: 480/30 excitation, 530/40 emission, Cy3: 544 excitation, 570 emission). • 9. For the biotin labeled probes, the gel is blotted to a PVDF membrane, using the Western blot procedure below.
Target sequence in this assay (Q06187 whole entry, species assumed): as above

[4] = lysis buffer 2 (1% Triton X100)

Row | signal of biotin probe bound to BTK (Streptavadin-HRP chemiluminescence) [1] | IC50 [2] [nM] | binding to recombinant BTK (fluorescence signal in gel) ([3]; PBS or lysis buffer 1) | binding to recombinant BTK (fluorescence signal in gel) [3, 4] | SMILES
1 | stronger signal | 3.4 |  |  | Nc1nccn2c([C@@H]3CCCCN3C(=O)/C=C/CN3CCN(CCNC(=O)CCCC(=O)NCCCOCCOCCOCCCNC(=O)CCCC[C@@H]4SC[C@@H]5NC(=O)N[C@@H]54)CC3)nc(-c3ccc(C(=O)Nc4ccccn4)cc3)c12 [Formula (3), N-[3-[2-[2-[3-[5-[(3aS,4S,6aR)-2-oxo-1,3,3a,4,6,6a-hexahydrothieno[3,4-d]imidazol-4-yl]pentanoylamino]propoxy]ethoxy]ethoxy]propyl]-N′-[2-[4-[(E)-4-[(2S)-2-[8-amino-1-[4-(2-pyridylcarbamoyl)phenyl]imidazo[1,5-a]pyrazin-3-yl]-1-piperidyl]-4-oxo-but-2-enyl]piperazin-1-yl]ethyl]pentanediamide]
2 |  | 1.5 |  |  | COc1ccc(-c2ccc3n2[B-](F)(F)[N+]2=C(C)C(CCC(=O)NCCN4CCN(C/C=C/C(=O)N5CCC[C@H]5c5nc(-c6ccc(C(=O)Nc7ccccn7)cc6)c6c(N)nccn56)CC4)=C(C)C2=C3)cc1 [Formula (4)]
3 |  |  | clear binding | minimal | Cc1cc(C)n2c1C=C1C=CC(CCC(=O)NCCN3CCN(C/C=C/C(=O)N4CCC[C@H]4c4nc(-c5ccc(C(=O)Nc6ccccn6)cc5)c5c(N)nccn45)CC3)=[N+]1[B-]2(F)F [Formula (5)]
4 |  |  | clear binding | no detectable binding | Nc1nccn2c([C@@H]3CCCN3C(=O)/C=C/CN3CCN(CCNC(=O)CCCC(=O)NCCCOCCOCCOCCCNC(=O)CCCC[C@@H]4SC[C@@H]5NC(=O)N[C@@H]54)CC3)nc(-c3ccc(C(=O)Nc4nccs4)cc3)c12 [Formula (6)]
